Patent US8207172B2 (Bayer Intellectual Property GmbH, priority 2004, dated 2012)
Structures can show the parent of a compound that is named as a salt.

Legend:
[1] = system: A431 cells (human epidermoid carcinoma); experiment: In vitro tumor cell proliferation assay (Cell Titer-Glo luminescent cell viability), A431; type: cell-based; conditions: A-431, 72 h, 72 hours of drug exposure, ATP luminescence readout, read-out: IC50, anti-proliferative activity (inhibition of cell proliferation)
How it was run: (§1)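 Seeding density 2.5×10^3 cells/well; 72 h drug exposure at 37° C; endpoint CellTiter-Glo luminescence, reported as IC50.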

[2] = system: BT474 (human breast carcinoma); experiment: In vitro tumor cell proliferation assay (Cell Titer-Glo luminescent cell viability), BT474; type: cell-based; conditions: BT-474, 72 h, BT474 cells, 72 hours of drug exposure, ATP luminescence readout, read-out: IC50, anti-proliferative activity (inhibition of cell proliferation)
How it was run: as §1

Row | IC50 [1] [µM] | IC50 [2] [µM] | Structure (SMILES)
1 | ≤ 50 | ≤ 1 | Clc1cc(Nc2ncnc3sc4c(c23)CCc2nn(CCN3CCOCC3)cc2-4)ccc1OCc1ccccn1 [Example 106, N-[3-chloro-4-(pyridin-2-ylmethoxy)phenyl]-2-(2-morpholin-4-ylethyl)-4,5-dihydro-2H-pyrimido[5′,4′:4,5]thieno[2,3-e]indazol-6-amine]
2 | ≤ 5 | ≤ 1 | CNCCn1cc2c(n1)CCc1c-2sc2ncnc(Nc3ccc(OCc4ccccn4)c(Cl)c3)c12 [Example 107, N-[3-chloro-4-(pyridin-2-ylmethoxy)phenyl]-2-[2-(methylamino)ethyl]-4,5-dihydro-2H-pyrimido[5′,4′:4,5]thieno[2,3-e]indazol-6-amine]
3 | ≤ 50 | ≤ 1 | CCNCCn1cc2c(n1)CCc1c-2sc2ncnc(Nc3ccc(OCc4ccccn4)c(Cl)c3)c12 [Example 108, N-[3-chloro-4-(pyridin-2-ylmethoxy)phenyl]-2-[2-(ethylamino)ethyl]-4,5-dihydro-2H-pyrimido[5′,4′:4,5]thieno[2,3-e]indazol-6-amine]
4 | ≤ 50 | ≤ 1 | Clc1cc(Nc2ncnc3sc4c(c23)CCc2n[nH]cc2-4)ccc1OCc1ccccn1 [Example 109, N-[3-chloro-4-(pyridin-2-ylmethoxy)phenyl]-4,5-dihydro-2H-pyrimido[5′,4′:4,5]thieno[2,3-e]indazol-6-amine]
5 | ≤ 5 | ≤ 1 | Clc1cc(Nc2ncnc3sc4c(c23)CCc2c-4cnn2CCBr)ccc1OCc1ccccn1 [Example 110, 3-(2-bromoethyl)-N-[3-chloro-4-(pyridin-2-ylmethoxy)phenyl]-4,5-dihydro-3H-pyrimido[5′,4′:4,5]thieno[2,3-e]indazol-6-amine]
6 | ≤ 50 | ≤ 1 | Clc1cc(Nc2ncnc3sc4c(c23)CCc2c-4cnn2CCN2CCOCC2)ccc1OCc1ccccn1 [Example 111, N-[3-chloro-4-(pyridin-2-ylmethoxy)phenyl]-3-(2-morpholin-4-ylethyl)-4,5-dihydro-3H-pyrimido[5′,4′:4,5]thieno[2,3-e]indazol-6-amine]
7 | ≤ 5 | ≤ 1 | CN1CCN(CCn2ncc3c2CCc2c-3sc3ncnc(Nc4ccc(OCc5ccccn5)c(Cl)c4)c23)CC1 [Example 112, N-[3-chloro-4-(pyridin-2-ylmethoxy)phenyl]-3-[2-(4-methylpiperazin-1-yl)ethyl]-4,5-dihydro-3H-pyrimido[5′,4′:4,5]thieno[2,3-e]indazol-6-amine]
8 | ≤ 50 | ≤ 1 | COCCNCCn1ncc2c1CCc1c-2sc2ncnc(Nc3ccc(OCc4ccccn4)c(Cl)c3)c12 [Example 113, N-[3-chloro-4-(pyridin-2-ylmethoxy)phenyl]-3-{2-[(2-methoxyethyl)amino]ethyl}-4,5-dihydro-3H-pyrimido[5′,4′:4,5]thieno[2,3-e]indazol-6-amine]
9 | ≤ 5 | ≤ 1 | CS(=O)(=O)CCNCCn1ncc2c1CCc1c-2sc2ncnc(Nc3ccc(OCc4ccccn4)c(Cl)c3)c12 [Example 114, N-[3-chloro-4-(pyridin-2-ylmethoxy)phenyl]-3-(2-{[2-(methylsulfonyl)ethyl]amino}ethyl)-4,5-dihydro-3H-pyrimido[5′,4′:4,5]thieno[2,3-e]indazol-6-amine]
10 | ≤ 50 | ≤ 1 | Cc1cccc(COc2ccc(Nc3ncnc4sc5c(c34)CCc3nn(CCO)cc3-5)cc2Cl)n1 [Example 115]
11 | ≤ 50 | ≤ 5 | Cc1cccc(COc2ccc(Nc3ncnc4sc5c(c34)CCc3nn(CCOS(C)(=O)=O)cc3-5)cc2Cl)n1 [Example 116, 2-[6-({3-chloro-4-[(6-methylpyridin-2-yl)methoxy]phenyl}amino)-4,5-dihydro-2H-pyrimido[5′,4′:4,5]thieno[2,3-e]indazol-2-yl]ethyl methanesulfonate]
12 | ≤ 50 | ≤ 5 | Cc1cccc(COc2ccc(Nc3ncnc4sc5c(c34)CCc3nn(CCN4CCN(C)CC4)cc3-5)cc2Cl)n1 [Example 117, N-{3-chloro-4-[(6-methylpyridin-2-yl)methoxy]phenyl}-2-[2-(4-methylpiperazin-1-yl)ethyl]-4,5-dihydro-2H-pyrimido[5′,4′:4,5]thieno[2,3-e]indazol 6-amine]
13 | ≤ 50 | ≤ 5 | CCN1CCN(CCn2cc3c(n2)CCc2c-3sc3ncnc(Nc4ccc(OCc5cccc(C)n5)c(Cl)c4)c23)CC1 [Example 118, N-{3-chloro-4-[(6-methylpyridin-2-yl)methoxy]phenyl}-2-[2-(4-ethylpiperazin-1-yl)ethyl]-4,5-dihydro-2H-pyrimido[5′,4′:4,5]thieno[2,3-e]indazol-6-amine]
14 | ≤ 50 | ≤ 5 | Cc1cccc(COc2ccc(Nc3ncnc4sc5c(c34)CCc3nn(CCN4CCOCC4)cc3-5)cc2Cl)n1 [Example 119, N-{3-chloro-4-[(6-methylpyridin-2-yl)methoxy]phenyl}-2-(2-morpholin-4-ylethyl)-4,5-dihydro-2H-pyrimido[5′,4′:4,5]thieno[2,3-e]indazol-6-amine]
15 | ≤ 5 | ≤ 5 | Cc1cccc(COc2ccc(Nc3ncnc4sc5c(c34)CCc3n[nH]cc3-5)cc2Cl)n1 [Example 120, N-{3-chloro-4-[(6-methylpyridin-2-yl)methoxy]phenyl}-4,5-dihydro-2H-pyrimido[5′,4′:4,5]thieno[2,3-e]indazol-6-amine]
16 | ≤ 5 | ≤ 1 | CCN1CCN(CCn2cc3c(n2)CCc2c-3sc3ncnc(Nc4ccc(OCc5cccc(F)c5)c(Cl)c4)c23)CC1 [Example 121, N-{3-chloro-4-[(3-fluorobenzyl)oxy]phenyl}-2-[2-(4-ethylpiperazin-1-yl)ethyl]-4,5-dihydro-2H-pyrimido[5′,4′:4,5]thieno[2,3-e]indazol-6-amine]
17 | ≤ 5 | ≤ 1 | COCCN1CCN(CCn2cc3c(n2)CCc2c-3sc3ncnc(Nc4ccc(OCc5cccc(F)c5)c(Cl)c4)c23)CC1 [Example 122, N-{3-chloro-4-[(3-fluorobenzyl)oxy]phenyl}-2-{2-[4-(2-methoxyethyl)piperazin-1-yl]ethyl}-4,5-dihydro-2H-pyrimido[5′,4′:4,5]thieno[2,3-e]indazol-6-amine]
18 | ≤ 50 | ≤ 1 | OCCn1cc2c(n1)CCc1c-2sc2ncnc(Nc3ccc(OCc4ccccc4)c(Cl)c3)c12 [Example 124, 2-(6-{[4-(benzyloxy)-3-chlorophenyl]amino}-4,5-dihydro-2H-pyrimido[5′,4′:4,5]thieno[2,3-e]indazol-2-yl)ethanol]
19 | ≤ 50 | ≤ 1 | CS(=O)(=O)OCCn1cc2c(n1)CCc1c-2sc2ncnc(Nc3ccc(OCc4ccccc4)c(Cl)c3)c12 [Example 125, 2-(6-{[4-(benzyloxy)-3-chlorophenyl]amino}-4,5-dihydro-2H-pyrimido[5′,4′:4,5]thieno[2,3-e]indazol-2-yl)ethyl methanesulfonate]
20 | ≤ 50 | ≤ 1 | Clc1cc(Nc2ncnc3sc4c(c23)CCc2nn(CCN3CCOCC3)cc2-4)ccc1OCc1ccccc1 [Example 126, N-[4-(benzyloxy)-3-chlorophenyl]-2-(2-morpholin-4-ylethyl)-4,5-dihydro-2H-pyrimido[5′,4′:4,5]thieno[2,3-e]indazol-6-amine]
21 | ≤ 5 | ≤ 1 | Clc1cc(Nc2ncnc3sc4c(c23)CCc2n[nH]cc2-4)ccc1OCc1ccccc1 [Example 127, N-[4-(benzyloxy)-3-chlorophenyl]-4,5-dihydro-2H-pyrimido[5′,4′:4,5]thieno[2,3-e]indazol-6-amine]
22 | ≤ 50 | ≤ 1 | C=CCn1cc2c(n1)CCc1c-2sc2ncnc(Nc3ccc(OCc4cccc(F)c4)c(Cl)c3)c12 [Example 128, 2-allyl-N-{3-chloro-4-[(3-fluorobenzyl)oxy]phenyl}-4,5-dihydro-2H-pyrimido[5′,4′:4,5]thieno[2,3-e]indazol-6-amine trifluoroacetate (Salt)]
23 | ≤ 50 | ≤ 1 | C=CCn1ncc2c1CCc1c-2sc2ncnc(Nc3ccc(OCc4cccc(F)c4)c(Cl)c3)c12 [Example 129, 3-allyl-N-{3-chloro-4-[(3-fluorobenzyl)oxy]phenyl}-4,5-dihydro-3H-pyrimido[5′,4′:4,5]thieno[2,3-e]indazol-6-amine]
24 | ≤ 50 | ≤ 5 | CCCn1cc2c(n1)CCc1c-2sc2ncnc(Nc3ccc(OCc4cccc(F)c4)c(Cl)c3)c12 [Example 130, N-{3-chloro-4-[(3-fluorobenzyl)oxy]phenyl}-2-propyl-4,5-dihydro-2H-pyrimido[5′,4′:4,5]thieno[2,3-e]indazol-6-amine trifluoroacetate]
25 | ≤ 50 | ≤ 1 | CCCn1ncc2c1CCc1c-2sc2ncnc(Nc3ccc(OCc4cccc(F)c4)c(Cl)c3)c12 [Example 131, N-{3-chloro-4-[(3-fluorobenzyl)oxy]phenyl}-3-propyl-4,5-dihydro-3H-pyrimido[5′,4′:4,5]thieno[2,3-e]indazol-6-amine trifluoroacetate]
26 | ≤ 5 | ≤ 1 | OCC(O)Cn1ncc2c1CCc1c-2sc2ncnc(Nc3ccc(OCc4cccc(F)c4)c(Cl)c3)c12 (stereo not drawn) [Example 132, 3-[6-({3-chloro-4-[(3-fluorobenzyl)oxy]phenyl}amino)-4,5-dihydro-3Hpyrimido[5′,4′:4,5]thieno[2,3-e]indazol-3-yl]propane-1,2-diol]

Row | Structure (SMILES) | IC50 [1] [µM] | IC50 [2] [µM]
27 | CC(C)(C)[Si](C)(C)OCCn1cc2c(n1)CCc1c-2sc2ncnc(Nc3ccc(OCc4ccccc4)c(Cl)c3)c12 [Example 123, N-[4-(benzyloxy)-3-chlorophenyl]-2-(2-{[tert-butyl(dimethyl)silyl]oxy}ethyl)-4,5-dihydro-2H-pyrimido[5′,4′:4,5]thieno[2,3-e]indazol-6-amine] | ≤ 50 | ≤ 5
